Earlier results as cited in US20050042271A1, “Transdermal delivery system for alkaloids of aconitum species” (priority 1999, published 2005).

Legend:
[1] = all layers of epidermis and dermis; irreversible damage, scarring

Compound	affinity for opioid receptors (opioid receptors)	skin irritation [1]
CCN1C[C@@]2(COC)[C@H]3[C@@H](OC)[C@H]4[C@@H]1[C@]3([C@@H](OC)C[C@H]2OC(C)=O)[C@@H]1C[C@@]2(O)[C@H](OC(=O)c3ccccc3)[C@@H]1[C@]4(OC(C)=O)[C@@H](O)[C@@H]2OC [3-acetylaconitine]	without affinity for opioid receptors	–
CCCCCCCCCCCCN1CCCCCC1=O [Azone, laurocapram]	–	severe skin irritation
CCN1C[C@]2(OC(=O)c3ccccc3NC(C)=O)CC[C@H](OC)[C@@]34[C@@H]2C[C@@H]([C@@H]13)[C@@]1(O)C[C@H](OC)[C@H]2C[C@@H]4[C@]1(O)[C@H]2OC [lappaconitine]	without affinity for opioid receptors	–
bulleyaconitine A	without affinity for opioid receptors	–
